Values of other authors as cited in patent US20040204435A1, “Alternating treatment with topoisomerase I and topoisomerase II inhibitors” (priority 2003, published 2004).
Each block holds one molecule with its values, some of them ahead of it.

Columns and labels:
[1] = tested on: human tumor xenografts
[2] = for clinical effectiveness: cancer patients
[3] = humans, plasma
[4] = mouse plasma
[5] = carboxylate versus CPT (lactone)
[6] = not given; remark: listed apart in the source

SMILES: CC[C@@]1(O)C(=O)OCc2c1cc1n(c2=O)Cc2cc3c(N)cccc3nc2-1 [9-aminocamptothecin]
effect on human tumor xenografts in nude mice [1]: completely eradicate | clinical effectiveness [2]: insufficiently effective

SMILES: CC[C@@]1(O)C(=O)OCc2c1cc1n(c2=O)Cc2cc3c([N+](=O)[O-])cccc3nc2-1 [9NC, 9-nitrocamptothecin]
drug circulating as lactone [3]: 2-5% | effect on human tumor xenografts in nude mice [1]: completely eradicate | administered dose circulating as active lactone form [4]: Up to 50% | clinical effectiveness [2]: less effective against human pancreas tumors in humans than against human cancer xenografts in nude mice

SMILES: CCC(O)(C(=O)O)c1cc2n(c(=O)c1CO)Cc1cc3ccccc3nc1-2 (stereo not shown) [CPT carboxylate]
solubility in water: soluble | anticancer activity relative to CPT [5]: ~10%

SMILES: CC[C@@]1(O)C(=O)OCc2c1cc1n(c2=O)Cc2cc3ccccc3nc2-1 [CPT lactone]
solubility in water: insoluble

SMILES: CC[C@@]1(O)C(=O)OCc2c1cc1n(c2=O)Cc2cc3ccccc3nc2-1 [CPT, Camptothecin]
effect on human tumor xenografts in nude mice [1]: completely eradicate | clinical effectiveness [2]: much less effective in cancer patients than in mice | dose-limiting toxicity ([2]; clinical trials (9NC: phase I-II)): diarrhea

solubility in water: water soluble
SMILES: CCc1c2c(nc3ccc(OC(=O)N4CCC(N5CCCCC5)CC4)cc13)-c1cc3c(c(=O)n1C2)COC(=O)[C@]3(O)CC [Camptosar, irinotecan]

solubility in water: water soluble
SMILES: CC[C@@]1(O)C(=O)OCc2c1cc1n(c2=O)Cc2cc3c(CN(C)C)c(O)ccc3nc2-1 [Topotecan]

SMILES: CC[C@@](O)(C(=O)[O-])c1cc2n(c(=O)c1CO)Cc1cc3ccccc3nc1-2.[Na+] [sodium salt of CPT]
toxicities ([6]; in vivo): myelosuppression, diarrhea and cystitis | clinical benefit ([6]; phase I and II trials 1970-1972): no clinical benefit
